According to ChEMBL document CHEMBL1201862, “PubChem BioAssay data set” (2004):
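Results reflect a 48-hour exposure of cells in 96-well plates to compound at five concentrations. The concentration for 50% growth inhibition is given as GI50.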 Active and inactive are the calls of the source. No stated cut-off is given here; in the data, active = GI50 up to about 1.1 µM and inactive = higher.

Tests used:
Test in all cases: DTP human tumour cell line panel, 48 h
OVCAR-3 = test system: OVCAR-3
COLO 205 = test system: COLO 205
SR = test system: SR
U-251 = test system: U-251
HCC 2998 = test system: HCC 2998
HCT-116 = test system: HCT-116
786-0 = test system: 786-0
OVCAR-5 = test system: OVCAR-5
EKVX = test system: EKVX
NCI-H23 = test system: NCI-H23
CCRF-CEM = test system: CCRF-CEM
HT-29 = test system: HT-29
UACC-62 = test system: UACC-62
SF-539 = test system: SF-539
MCF7 = test system: MCF7
MDA-MB-231 = test system: MDA-MB-231
MDA-N = test system: MDA-N
PC-3 = test system: PC-3
MDA-MB-435 = test system: MDA-MB-435

SMILES	GI50 (OVCAR-3)	GI50 (COLO 205)	GI50 (SR)	GI50 (U-251)	GI50 (HCC 2998)	GI50 (HCT-116)	GI50 (786-0)	GI50 (OVCAR-5)	GI50 (EKVX)	GI50 (NCI-H23)	GI50 (CCRF-CEM)	GI50 (HT-29)	GI50 (UACC-62)	GI50 (SF-539)	GI50 (MCF7)	GI50 (MDA-MB-231)	GI50 (MDA-N)	GI50 (PC-3)	GI50 (MDA-MB-435)
CCCC1C[C@H]2CCCCN2[C@H]2CCCN12 (some centres undefined)	> 100 µM (inactive)	> 47.4 µM (inactive)	> 40.6 µM (inactive)	> 44.4 µM (inactive)	> 100 µM (inactive)	> 45.2 µM (inactive)	> 100 µM (inactive)	> 100 µM (inactive)	> 100 µM (inactive)	> 100 µM (inactive)	> 45.9 µM (inactive)	> 100 µM (inactive)	> 100 µM (inactive)	> 100 µM (inactive)	–	–	–	–	–
NC(=O)c1c[se]c(C2OC(COP(=O)(O)CP(=O)(O)OCC3OC(n4cnc5c(N)ncnc54)C(O)C3O)C(O)C2O)n1 (centres undefined)	> 100 µM (inactive)	93.1 µM (inactive)	35 µM (inactive)	61 µM (inactive)	–	52.1 µM (inactive)	63.1 µM (inactive)	> 100 µM (inactive)	> 100 µM (inactive)	> 100 µM (inactive)	29.1 µM (inactive)	53.2 µM (inactive)	–	> 100 µM (inactive)	–	–	–	–	–
CC1=C(C(=O)Nc2cc(F)c(F)cc2F)C(c2cccc([N+](=O)[O-])c2)C(C(=O)Nc2ccccc2C(F)(F)F)=C(C)N1 (centres undefined)	16.8 µM (inactive)	28.7 µM (inactive)	–	16.9 µM (inactive)	20 µM (inactive)	–	17.3 µM (inactive)	17.9 µM (inactive)	21.4 µM (inactive)	16.6 µM (inactive)	17.5 µM (inactive)	26.7 µM (inactive)	–	20.7 µM (inactive)	–	–	–	–	–
COc1cc2c(cc1O)C=NCC2	78.5 µM (inactive)	65.8 µM (inactive)	–	> 100 µM (inactive)	–	> 100 µM (inactive)	> 100 µM (inactive)	> 100 µM (inactive)	> 100 µM (inactive)	> 100 µM (inactive)	50 µM (inactive)	–	> 100 µM (inactive)	> 100 µM (inactive)	–	–	–	–	–
CN(C)/C(N)=N\C#N	> 100 µM (inactive)	59.4 µM (inactive)	–	> 100 µM (inactive)	> 100 µM (inactive)	> 100 µM (inactive)	> 100 µM (inactive)	> 100 µM (inactive)	> 100 µM (inactive)	> 100 µM (inactive)	–	> 100 µM (inactive)	> 100 µM (inactive)	> 100 µM (inactive)	–	–	–	–	–
CC(=O)C1Cn2c(=O)c3cc4ccccc4cc3c(=O)n2C=C1C (centres undefined)	> 100 µM (inactive)	> 100 µM (inactive)	> 100 µM (inactive)	> 100 µM (inactive)	> 100 µM (inactive)	> 100 µM (inactive)	> 100 µM (inactive)	> 100 µM (inactive)	> 100 µM (inactive)	> 100 µM (inactive)	> 100 µM (inactive)	–	–	> 100 µM (inactive)	–	–	–	–	–
CCSC(SCC)=C1C(=O)N(c2ccccc2)N=C1C	4.67 µM (inactive)	2.27 µM (inactive)	15.6 µM (inactive)	–	14.5 µM (inactive)	15.1 µM (inactive)	13.1 µM (inactive)	15.9 µM (inactive)	13.7 µM (inactive)	18.3 µM (inactive)	2.92 µM (inactive)	19.1 µM (inactive)	13.7 µM (inactive)	–	–	–	–	–	–
COc1cccc(NC(=O)CSc2nnc(-c3ccc(NC(C)=O)cc3)o2)c1	> 100 µM (inactive)	> 100 µM (inactive)	90.2 µM (inactive)	> 100 µM (inactive)	–	> 100 µM (inactive)	> 100 µM (inactive)	83.2 µM (inactive)	–	> 100 µM (inactive)	79.1 µM (inactive)	39.6 µM (inactive)	> 100 µM (inactive)	–	–	–	–	–	–
N#C/C(=C(/S)Nc1ccccc1)c1nc2ccccc2[nH]1	> 10 µM (inactive)	> 10 µM (inactive)	> 10 µM (inactive)	> 10 µM (inactive)	> 10 µM (inactive)	> 10 µM (inactive)	> 10 µM (inactive)	> 10 µM (inactive)	> 10 µM (inactive)	> 10 µM (inactive)	> 10 µM (inactive)	–	> 10 µM (inactive)	> 10 µM (inactive)	–	–	–	–	–
Cc1cc(C=O)c2c(=O)c3c(O)ccc(/C=C/C(C)C)c3oc2c1	43.2 µM (inactive)	> 100 µM (inactive)	26.7 µM (inactive)	41.1 µM (inactive)	> 100 µM (inactive)	20.9 µM (inactive)	39.8 µM (inactive)	> 100 µM (inactive)	–	46.7 µM (inactive)	> 10 µM (inactive)	> 100 µM (inactive)	56.8 µM (inactive)	> 100 µM (inactive)	–	–	–	–	–
Cc1ccc(S(=O)(=O)Nc2cccc3c(=O)nc[nH]c23)cc1	> 100 µM (inactive)	> 100 µM (inactive)	10.7 µM (inactive)	> 100 µM (inactive)	> 82 µM (inactive)	99.3 µM (inactive)	> 100 µM (inactive)	> 100 µM (inactive)	> 100 µM (inactive)	90.8 µM (inactive)	37.2 µM (inactive)	> 100 µM (inactive)	> 87.1 µM (inactive)	> 100 µM (inactive)	–	–	–	–	–
CC(=O)c1ccc2c(ccc(=O)n2C)c1	> 100 µM (inactive)	> 100 µM (inactive)	–	> 100 µM (inactive)	> 100 µM (inactive)	> 100 µM (inactive)	> 100 µM (inactive)	> 100 µM (inactive)	> 100 µM (inactive)	> 100 µM (inactive)	> 100 µM (inactive)	> 100 µM (inactive)	93.8 µM (inactive)	> 100 µM (inactive)	–	–	–	–	–
CC(C)C(=O)/C=C/c1ccc(Cl)cc1	14.4 µM (inactive)	28.2 µM (inactive)	4.84 µM (inactive)	12.9 µM (inactive)	18 µM (inactive)	2.67 µM (inactive)	11.1 µM (inactive)	20.2 µM (inactive)	–	17 µM (inactive)	4.19 µM (inactive)	14.1 µM (inactive)	15.4 µM (inactive)	10.4 µM (inactive)	–	–	–	–	–
O=[N+]([O-])c1ccc(C[P+]2(c3ccccc3)CCCCC2)cc1.[O-][Cl+3]([O-])([O-])[O-]	> 100 µM (inactive)	> 100 µM (inactive)	> 100 µM (inactive)	> 100 µM (inactive)	> 100 µM (inactive)	> 100 µM (inactive)	> 100 µM (inactive)	> 100 µM (inactive)	> 100 µM (inactive)	> 100 µM (inactive)	> 100 µM (inactive)	> 100 µM (inactive)	> 100 µM (inactive)	> 100 µM (inactive)	–	–	–	–	–
CCOP1(=O)C=CC(Cl)=C(C)C1 (centres undefined)	19.9 µM (inactive)	19.1 µM (inactive)	–	24.4 µM (inactive)	15.9 µM (inactive)	5.58 µM (inactive)	15.6 µM (inactive)	24.2 µM (inactive)	26.4 µM (inactive)	13 µM (inactive)	3.13 µM (inactive)	13.2 µM (inactive)	15 µM (inactive)	17.8 µM (inactive)	–	–	–	–	–
Cc1ccc(NC(=O)CC/C(CC(=O)c2ccc(Cl)cc2)=N\NC(=O)C(=O)NN)cc1C	> 100 µM (inactive)	> 100 µM (inactive)	> 100 µM (inactive)	> 100 µM (inactive)	> 100 µM (inactive)	> 100 µM (inactive)	> 100 µM (inactive)	> 100 µM (inactive)	> 100 µM (inactive)	> 100 µM (inactive)	> 100 µM (inactive)	> 100 µM (inactive)	> 100 µM (inactive)	> 100 µM (inactive)	–	–	–	–	–
COc1ccc(C(CCC(C)=O)C(=O)O)cc1OC (centres undefined)	> 100 µM (inactive)	> 100 µM (inactive)	> 100 µM (inactive)	> 100 µM (inactive)	–	> 100 µM (inactive)	> 100 µM (inactive)	> 100 µM (inactive)	> 100 µM (inactive)	> 100 µM (inactive)	–	> 100 µM (inactive)	> 100 µM (inactive)	> 100 µM (inactive)	–	–	–	–	–
COc1cc(C2c3cc4c(cc3[C@@H](N(C)c3ccc(N(C)C)cc3)C3COC(=O)C23)OCO4)cc(OC)c1O (some centres undefined)	0.213 µM (active)	0.479 µM (active)	0.427 µM (active)	0.219 µM (active)	0.785 µM (active)	0.399 µM (active)	0.489 µM (active)	3.42 µM (inactive)	15.8 µM (inactive)	0.291 µM (active)	0.343 µM (active)	0.269 µM (active)	0.472 µM (active)	0.255 µM (active)	–	–	–	–	–
Cc1ccccc1NC(=N)Nc1ccccc1C	> 100 µM (inactive)	> 100 µM (inactive)	–	> 100 µM (inactive)	21.9 µM (inactive)	> 100 µM (inactive)	> 100 µM (inactive)	> 100 µM (inactive)	> 100 µM (inactive)	> 100 µM (inactive)	> 100 µM (inactive)	> 100 µM (inactive)	> 100 µM (inactive)	> 100 µM (inactive)	> 100 µM (inactive)	> 100 µM (inactive)	> 100 µM (inactive)	> 100 µM (inactive)	> 100 µM (inactive)
Nc1cccc(S(=O)(=O)NCC(=O)O)c1	> 100 µM (inactive)	> 100 µM (inactive)	–	> 100 µM (inactive)	> 100 µM (inactive)	> 100 µM (inactive)	> 100 µM (inactive)	> 100 µM (inactive)	> 100 µM (inactive)	> 100 µM (inactive)	> 100 µM (inactive)	> 100 µM (inactive)	> 100 µM (inactive)	> 100 µM (inactive)	–	–	–	–	–
